Experimental data: patent US10456358B2, “Isoxazoline compositions and use thereof in the prevention or treatment of parasite infestations in animals” (Intervet Inc., priority 2013, dated 2019)

What was measured:
[1] = Technological study: fluralaner concentration at drinking nipples of a poultry house water system; format: physicochemical
Procedure: The study was conducted in a commercial poultry house for approximately 36000 replacement chickens with 4 batteries each with 3 levels. 4 PVC water dead-end pipes, (78 m long) supplied water for each battery.
Drinking nipples (Big Dutchman types “screw nipples” and “Top”, equipped with a single-arm plastic drip cup) were fitted to the water pipes. In this facility the delivery of the concentrated composition to the drinking nipples using both a dosing pump system and a medication tank was evaluated. • a) Dosing Pump • The dosing pump and its stock solution container were installed in a water hose coming from the water supply pipe and ending in a water tank that was metered for […]. • The dosing pump was set for 5% injection rate. The stock solution container was filled with a total of 8.8 L (175×0.05 [5%]). • Once the container was filled, the calculated volume of 193 mL of the concentrated composition was poured into the container and subsequently stirred. • The dosing pump was connected to the water distribution pipe and the pipe system filled with the medicated water. • b) Medication Tank • The medication tank was filled with 175 L of tap water. • The calculated volume of 193 mL of the concentrated composition was poured into the container and subsequently stirred. • The medication tank was connected to the water distribution pipe and the pipe system filled with the medicated water.
No animals were present in the cages. Therefore the water lines were opened every 10 min to mimic a continuous (intermittent) drinking water flow. At each draining 7.3 L of medicated water was allowed to drain at the dead-end side of the pipe.
Samples of medicated water was taken from 6 drinking nipples: the first and last drinking nipple in a drinker line, and from 4 drinking nipples having an equal distance at pre-defined time points, with a maximum of 4 h and analysed for fluralaner concentration.

[2] = Tolerability in hens in the efficacy study; format: in vivo; conditions: 0.5-2 mg fluralaner/kg BW via medicated drinking water
Procedure: Groups A-D (n=6) were treated with doses of 2, 1 and 0.5 mg fluralaner/kg BW once or 1 mg fluralaner/kg BW twice (0.5 mg/kg BW on 2 occasions).
On D0 (group D additionally on D7), the hens in groups A-D received fluralaner via medicated drinking water. Group E received un-medicated drinking water ad libitum.

Cc1cc(C2=NOC(c3cc(Cl)cc(Cl)c3)(C(F)(F)F)C2)ccc1C(=O)NCC(=O)NCC(F)(F)F (centres unmarked) [fluralaner, 4-[5-(3,5-Dichlorophenyl)-5-trifluoromethyl-4,5-dihydroisoxazol-3-yl]-2-methyl-N-[(2,2,2-trifluoro-ethylcarbamoyl)-methyl]-benzamide]
Deviation of fluralaner concentration at the drinking nipple from nominal concentration (percent) ([1]; Dosing pump system, Nipple 1, T 30 min): −10% | Deviation of fluralaner concentration at the drinking nipple from nominal concentration (percent) ([1]; Dosing pump system, Nipple 1, T 60 min): −10% | Deviation of fluralaner concentration at the drinking nipple from nominal concentration (percent) ([1]; Dosing pump system, Nipple 1, T 120 min): −9% | Deviation of fluralaner concentration at the drinking nipple from nominal concentration (percent) ([1]; Dosing pump system, Nipple 1, T 180 min): −9% | Deviation of fluralaner concentration at the drinking nipple from nominal concentration (percent) ([1]; Dosing pump system, Nipple 1, T 240 min): −9% | Deviation of fluralaner concentration at the drinking nipple from nominal concentration (percent) ([1]; Dosing pump system, Nipple 2, T 30 min): −9% | Deviation of fluralaner concentration at the drinking nipple from nominal concentration (percent) ([1]; Dosing pump system, Nipple 2, T 60 min): −14% | Deviation of fluralaner concentration at the drinking nipple from nominal concentration (percent) ([1]; Dosing pump system, Nipple 2, T 120 min): −12% | Deviation of fluralaner concentration at the drinking nipple from nominal concentration (percent) ([1]; Dosing pump system, Nipple 2, T 180 min): −9% | Deviation of fluralaner concentration at the drinking nipple from nominal concentration (percent) ([1]; Dosing pump system, Nipple 2, T 240 min): −9% | Deviation of fluralaner concentration at the drinking nipple from nominal concentration (percent) ([1]; Dosing pump system, Nipple 3, T 30 min): −9% | Deviation of fluralaner concentration at the drinking nipple from nominal concentration (percent) ([1]; Dosing pump system, Nipple 3, T 60 min): −10% | Deviation of fluralaner concentration at the drinking nipple from nominal concentration (percent) ([1]; Dosing pump system, Nipple 3, T 120 min): −10% | Deviation of fluralaner concentration at the drinking nipple from nominal concentration (percent) ([1]; Dosing pump system, Nipple 3, T 180 min): −14% | Deviation of fluralaner concentration at the drinking nipple from nominal concentration (percent) ([1]; Dosing pump system, Nipple 3, T 240 min): −14% | Deviation of fluralaner concentration at the drinking nipple from nominal concentration (percent) ([1]; Dosing pump system, Nipple 4, T 30 min): −12% | Deviation of fluralaner concentration at the drinking nipple from nominal concentration (percent) ([1]; Dosing pump system, Nipple 4, T 60 min): −16% | Deviation of fluralaner concentration at the drinking nipple from nominal concentration (percent) ([1]; Dosing pump system, Nipple 4, T 120 min): −14% | Deviation of fluralaner concentration at the drinking nipple from nominal concentration (percent) ([1]; Dosing pump system, Nipple 4, T 180 min): −10% | Deviation of fluralaner concentration at the drinking nipple from nominal concentration (percent) ([1]; Dosing pump system, Nipple 4, T 240 min): −10% | Deviation of fluralaner concentration at the drinking nipple from nominal concentration (percent) ([1]; Dosing pump system, Nipple 5, T 30 min): −12% | Deviation of fluralaner concentration at the drinking nipple from nominal concentration (percent) ([1]; Dosing pump system, Nipple 5, T 60 min): −10% | Deviation of fluralaner concentration at the drinking nipple from nominal concentration (percent) ([1]; Dosing pump system, Nipple 5, T 120 min): −11% | Deviation of fluralaner concentration at the drinking nipple from nominal concentration (percent) ([1]; Dosing pump system, Nipple 5, T 180 min): −10% | Deviation of fluralaner concentration at the drinking nipple from nominal concentration (percent) ([1]; Dosing pump system, Nipple 5, T 240 min): −10% | Deviation of fluralaner concentration at the drinking nipple from nominal concentration (percent) ([1]; Dosing pump system, Nipple 6, T 30 min): −26% | Deviation of fluralaner concentration at the drinking nipple from nominal concentration (percent) ([1]; Dosing pump system, Nipple 6, T 60 min): −10% | Deviation of fluralaner concentration at the drinking nipple from nominal concentration (percent) ([1]; Dosing pump system, Nipple 6, T 120 min): −11% | Deviation of fluralaner concentration at the drinking nipple from nominal concentration (percent) ([1]; Dosing pump system, Nipple 6, T 180 min): −11% | Deviation of fluralaner concentration at the drinking nipple from nominal concentration (percent) ([1]; Dosing pump system, Nipple 6, T 240 min): −10% | Deviation of fluralaner concentration at the drinking nipple from nominal concentration (percent) ([1]; Medication tank system, Nipple 1, T 30 min): −5% | Deviation of fluralaner concentration at the drinking nipple from nominal concentration (percent) ([1]; Medication tank system, Nipple 1, T 60 min): −4% | Deviation of fluralaner concentration at the drinking nipple from nominal concentration (percent) ([1]; Medication tank system, Nipple 1, T 120 min): −4% | Deviation of fluralaner concentration at the drinking nipple from nominal concentration (percent) ([1]; Medication tank system, Nipple 1, T 180 min): −5% | Deviation of fluralaner concentration at the drinking nipple from nominal concentration (percent) ([1]; Medication tank system, Nipple 1, T 240 min): −10% | Deviation of fluralaner concentration at the drinking nipple from nominal concentration (percent) ([1]; Medication tank system, Nipple 2, T 30 min): −7% | Deviation of fluralaner concentration at the drinking nipple from nominal concentration (percent) ([1]; Medication tank system, Nipple 2, T 60 min): −5% | Deviation of fluralaner concentration at the drinking nipple from nominal concentration (percent) ([1]; Medication tank system, Nipple 2, T 120 min): −4% | Deviation of fluralaner concentration at the drinking nipple from nominal concentration (percent) ([1]; Medication tank system, Nipple 2, T 180 min): −5% | Deviation of fluralaner concentration at the drinking nipple from nominal concentration (percent) ([1]; Medication tank system, Nipple 2, T 240 min): −4% | Deviation of fluralaner concentration at the drinking nipple from nominal concentration (percent) ([1]; Medication tank system, Nipple 3, T 30 min): −5% | Deviation of fluralaner concentration at the drinking nipple from nominal concentration (percent) ([1]; Medication tank system, Nipple 3, T 60 min): −4% | Deviation of fluralaner concentration at the drinking nipple from nominal concentration (percent) ([1]; Medication tank system, Nipple 3, T 120 min): −4% | Deviation of fluralaner concentration at the drinking nipple from nominal concentration (percent) ([1]; Medication tank system, Nipple 3, T 180 min): −4% | Deviation of fluralaner concentration at the drinking nipple from nominal concentration (percent) ([1]; Medication tank system, Nipple 3, T 240 min): −4% | Deviation of fluralaner concentration at the drinking nipple from nominal concentration (percent) ([1]; Medication tank system, Nipple 4, T 30 min): −6% | Deviation of fluralaner concentration at the drinking nipple from nominal concentration (percent) ([1]; Medication tank system, Nipple 4, T 60 min): −5% | Deviation of fluralaner concentration at the drinking nipple from nominal concentration (percent) ([1]; Medication tank system, Nipple 4, T 120 min): −4% | Deviation of fluralaner concentration at the drinking nipple from nominal concentration (percent) ([1]; Medication tank system, Nipple 4, T 180 min): −4% | Deviation of fluralaner concentration at the drinking nipple from nominal concentration (percent) ([1]; Medication tank system, Nipple 4, T 240 min): −3% | Deviation of fluralaner concentration at the drinking nipple from nominal concentration (percent) ([1]; Medication tank system, Nipple 5, T 30 min): −8% | Deviation of fluralaner concentration at the drinking nipple from nominal concentration (percent) ([1]; Medication tank system, Nipple 5, T 60 min): −4% | Deviation of fluralaner concentration at the drinking nipple from nominal concentration (percent) ([1]; Medication tank system, Nipple 5, T 120 min): −4% | Deviation of fluralaner concentration at the drinking nipple from nominal concentration (percent) ([1]; Medication tank system, Nipple 5, T 180 min): −4% | Deviation of fluralaner concentration at the drinking nipple from nominal concentration (percent) ([1]; Medication tank system, Nipple 5, T 240 min): −6% | Deviation of fluralaner concentration at the drinking nipple from nominal concentration (percent) ([1]; Medication tank system, Nipple 6, T 30 min): −6% | Deviation of fluralaner concentration at the drinking nipple from nominal concentration (percent) ([1]; Medication tank system, Nipple 6, T 60 min): −6% | Deviation of fluralaner concentration at the drinking nipple from nominal concentration (percent) ([1]; Medication tank system, Nipple 6, T 120 min): −4% | Deviation of fluralaner concentration at the drinking nipple from nominal concentration (percent) ([1]; Medication tank system, Nipple 6, T 180 min): −5% | Deviation of fluralaner concentration at the drinking nipple from nominal concentration (percent) ([1]; Medication tank system, Nipple 6, T 240 min): −4% | fluralaner concentration in the drinking water over time and along the drinking water line ([1]; up to 4 hours, medication tank and dosing pump): remains constant over time and along the drinking water line | tolerability [2]: well tolerated
